Where two headings read alike, the source gives them in different places.
Assay: Single dose PK in healthy subjects (Cohorts 1, 2, S1 and S2), plasma
Format: in vivo, human
Settings: human, plasma, iv, healthy subjects
Protocol: This study investigates (i) the safety and tolerability of Compound A (methyl (2R,3S)-3-((methylsulfonyl)amino)-2-(((cis-4-phenylcyclohexyl)oxy)methyl)piperidine-1-carboxylate) when a single dose given as a 9 hour continuous IV infusion is administered to healthy adults, healthy elderly subjects and patients with narcolepsy type 1 (NT1); (ii) the pharmacokinetics of Compound A when a single dose given as a 9 hour continuous IV infusion is administered to healthy adults, healthy elderly subjects and patients with narcolepsy type 1; and (iii) the pharmacodynamics (PD) effects of Compound A, primarily by evaluation of the sleep latency on MWT when a single dose given as a 9 hour continuous IV infusion is administered to patients with narcolepsy type 1.
Pharmacokinetics: Concentrations of Compound A in plasma, and CSF, and pharmacokinetics parameters.
On average, the time to reach the plateau appeared to be approximately 3 to 4 hours after the start of infusion. […] After switching off the IV infusion, Compound A plasma concentrations declined rapidly and in a biphasic manner with a mean terminal disposition phase t1/2z ranging approximately from 3.4 to 5.1 hours across all doses. […] Table 5 provides a summary of plasma concentrations of Compound A after a single IV infusion in healthy subjects. Table 6 provides a summary of pharmacokinetic parameters of Compound A after a single IV infusion in healthy subjects.

Compound: COC(=O)N1CCC[C@H](NS(C)(=O)=O)[C@@H]1CO[C@H]1CC[C@@H](c2ccccc2)CC1 [Compound A, methyl (2R,3S)-3-((methylsulfonyl)amino)-2-(((cis-4-phenylcyclohexyl)oxy)methyl)piperidine-1-carboxylate]
- AUC(0-inf) (14 mg, 14 mg single IV infusion, read-out: AUCinf Median): 322 ng·h/mL
- AUC(0-t) (14 mg, 14 mg single IV infusion, read-out: AUClast Geo Mean): 323 ng·h/mL
- AUC(0-t) (14 mg, 14 mg single IV infusion, read-out: AUClast Mean): 326 ng·h/mL
- AUC(0-t) (14 mg, 14 mg single IV infusion, read-out: AUClast Median): 322 ng·h/mL
- clearance (14 mg, 14 mg single IV infusion, read-out: CL Mean (converted)): 718 mL/min
- clearance (14 mg, 14 mg single IV infusion, read-out: CL Median (converted)): 723 mL/min
- concentration at 9 h (14 mg, 14 mg single IV infusion, read-out: Ceoi Geo Mean): 29.8 ng/mL
- concentration at 9 h (14 mg, 14 mg single IV infusion, read-out: Ceoi Mean): 30.1 ng/mL
- concentration at 9 h (14 mg, 14 mg single IV infusion, read-out: Ceoi Median): 30.8 ng/mL
- Cmax (14 mg, 14 mg single IV infusion, read-out: Cmax Geo Mean): 36.8 ng/mL
- Cmax (14 mg, 14 mg single IV infusion, read-out: Cmax Mean): 37 ng/mL
- Cmax (14 mg, 14 mg single IV infusion, read-out: Cmax Median): 37 ng/mL
- Vd (14 mg, 14 mg single IV infusion, read-out: Vss Mean): 77.1 L
- Vd (14 mg, 14 mg single IV infusion, read-out: Vss Median): 72.7 L
- Vd (14 mg, 14 mg single IV infusion, read-out: Vz Mean): 272 L
- Vd (14 mg, 14 mg single IV infusion, read-out: Vz Median): 253 L
- Tmax (14 mg, 14 mg single IV infusion, read-out: tmax Mean): 3.67 h
- Tmax (14 mg, 14 mg single IV infusion, read-out: tmax Median): 4 h
- AUC (28 mg, 28 mg single IV infusion, read-out: AUC24 Geo Mean): 513 ng·h/mL
- AUC (28 mg, 28 mg single IV infusion, read-out: AUC24 Mean): 519 ng·h/mL
- AUC (28 mg, 28 mg single IV infusion, read-out: AUC24 Median): 543 ng·h/mL
- AUC(0-inf) (28 mg, 28 mg single IV infusion, read-out: AUCinf Geo Mean): 524 ng·h/mL
- AUC(0-inf) (28 mg, 28 mg single IV infusion, read-out: AUCinf Mean): 530 ng·h/mL
- AUC(0-inf) (28 mg, 28 mg single IV infusion, read-out: AUCinf Median): 549 ng·h/mL
- AUC(0-t) (28 mg, 28 mg single IV infusion, read-out: AUClast Geo Mean): 513 ng·h/mL
- AUC(0-t) (28 mg, 28 mg single IV infusion, read-out: AUClast Mean): 519 ng·h/mL
- AUC(0-t) (28 mg, 28 mg single IV infusion, read-out: AUClast Median): 543 ng·h/mL
- clearance (28 mg, 28 mg single IV infusion, read-out: CL Mean (converted)): 903 mL/min
- clearance (28 mg, 28 mg single IV infusion, read-out: CL Median (converted)): 850 mL/min
- concentration at 9 h (28 mg, 28 mg single IV infusion, read-out: Ceoi Geo Mean): 52.1 ng/mL
- concentration at 9 h (28 mg, 28 mg single IV infusion, read-out: Ceoi Mean): 52.5 ng/mL
- concentration at 9 h (28 mg, 28 mg single IV infusion, read-out: Ceoi Median): 55.3 ng/mL
- Cmax (28 mg, 28 mg single IV infusion, read-out: Cmax Geo Mean): 57.6 ng/mL
- Cmax (28 mg, 28 mg single IV infusion, read-out: Cmax Mean): 58.1 ng/mL
- Cmax (28 mg, 28 mg single IV infusion, read-out: Cmax Median): 59.3 ng/mL
- Vd (28 mg, 28 mg single IV infusion, read-out: Vss Mean): 116 L
- Vd (28 mg, 28 mg single IV infusion, read-out: Vss Median): 105 L
- Vd (28 mg, 28 mg single IV infusion, read-out: Vz Mean): 392 L
- Vd (28 mg, 28 mg single IV infusion, read-out: Vz Median): 406 L
- Tmax (28 mg, 28 mg single IV infusion, read-out: tmax Mean): 3 h
- Tmax (28 mg, 28 mg single IV infusion, read-out: tmax Median): 3 h
- AUC (56 mg, 56 mg single IV infusion, read-out: AUC24 Geo Mean): 1060 ng·h/mL
- AUC (56 mg, 56 mg single IV infusion, read-out: AUC24 Mean): 1070 ng·h/mL
- AUC (56 mg, 56 mg single IV infusion, read-out: AUC24 Median): 1040 ng·h/mL
- AUC(0-inf) (56 mg, 56 mg single IV infusion, read-out: AUCinf Geo Mean): 1060 ng·h/mL
- AUC(0-inf) (56 mg, 56 mg single IV infusion, read-out: AUCinf Mean): 1080 ng·h/mL
- AUC(0-inf) (56 mg, 56 mg single IV infusion, read-out: AUCinf Median): 1050 ng·h/mL
- AUC(0-t) (56 mg, 56 mg single IV infusion, read-out: AUClast Geo Mean): 1060 ng·h/mL
- AUC(0-t) (56 mg, 56 mg single IV infusion, read-out: AUClast Mean): 1070 ng·h/mL
- AUC(0-t) (56 mg, 56 mg single IV infusion, read-out: AUClast Median): 1040 ng·h/mL
- clearance (56 mg, 56 mg single IV infusion, read-out: CL Mean (converted)): 885 mL/min
- clearance (56 mg, 56 mg single IV infusion, read-out: CL Median (converted)): 891 mL/min
- concentration at 9 h (56 mg, 56 mg single IV infusion, read-out: Ceoi Geo Mean): 115 ng/mL
- concentration at 9 h (56 mg, 56 mg single IV infusion, read-out: Ceoi Mean): 115 ng/mL
- concentration at 9 h (56 mg, 56 mg single IV infusion, read-out: Ceoi Median): 112 ng/mL
- Cmax (56 mg, 56 mg single IV infusion, read-out: Cmax Geo Mean): 123 ng/mL
- Cmax (56 mg, 56 mg single IV infusion, read-out: Cmax Mean): 123 ng/mL
- Cmax (56 mg, 56 mg single IV infusion, read-out: Cmax Median): 122 ng/mL
- Vd (56 mg, 56 mg single IV infusion, read-out: Vss Mean): 91.4 L
- Vd (56 mg, 56 mg single IV infusion, read-out: Vss Median): 89.1 L
- Vd (56 mg, 56 mg single IV infusion, read-out: Vz Mean): 291 L
- Vd (56 mg, 56 mg single IV infusion, read-out: Vz Median): 282 L
- Tmax (56 mg, 56 mg single IV infusion, read-out: tmax Mean): 4.5 h
- Tmax (56 mg, 56 mg single IV infusion, read-out: tmax Median): 4 h
- AUC (112 mg, 112 mg single IV infusion, read-out: AUC24 Geo Mean): 2070 ng·h/mL
- AUC (112 mg, 112 mg single IV infusion, read-out: AUC24 Mean): 2090 ng·h/mL
- AUC (112 mg, 112 mg single IV infusion, read-out: AUC24 Median): 2130 ng·h/mL
- AUC(0-inf) (112 mg, 112 mg single IV infusion, read-out: AUCinf Geo Mean): 2090 ng·h/mL
- AUC(0-inf) (112 mg, 112 mg single IV infusion, read-out: AUCinf Mean): 2110 ng·h/mL
- AUC(0-inf) (112 mg, 112 mg single IV infusion, read-out: AUCinf Median): 2160 ng·h/mL
- AUC(0-t) (112 mg, 112 mg single IV infusion, read-out: AUClast Geo Mean): 2070 ng·h/mL
- AUC(0-t) (112 mg, 112 mg single IV infusion, read-out: AUClast Mean): 2090 ng·h/mL
- AUC(0-t) (112 mg, 112 mg single IV infusion, read-out: AUClast Median): 2130 ng·h/mL
- clearance (112 mg, 112 mg single IV infusion, read-out: CL Mean (converted)): 902 mL/min
- clearance (112 mg, 112 mg single IV infusion, read-out: CL Median (converted)): 867 mL/min
- concentration at 9 h (112 mg, 112 mg single IV infusion, read-out: Ceoi Geo Mean): 214 ng/mL
- concentration at 9 h (112 mg, 112 mg single IV infusion, read-out: Ceoi Mean): 216 ng/mL
- concentration at 9 h (112 mg, 112 mg single IV infusion, read-out: Ceoi Median): 221 ng/mL
- Cmax (112 mg, 112 mg single IV infusion, read-out: Cmax Geo Mean): 235 ng/mL
- Cmax (112 mg, 112 mg single IV infusion, read-out: Cmax Mean): 238 ng/mL
- Cmax (112 mg, 112 mg single IV infusion, read-out: Cmax Median): 250 ng/mL
- Vd (112 mg, 112 mg single IV infusion, read-out: Vss Mean): 97.8 L
- Vd (112 mg, 112 mg single IV infusion, read-out: Vss Median): 104 L
- Vd (112 mg, 112 mg single IV infusion, read-out: Vz Mean): 289 L
- Vd (112 mg, 112 mg single IV infusion, read-out: Vz Median): 301 L
- Tmax (112 mg, 112 mg single IV infusion, read-out: tmax Mean): 4.25 h
- Tmax (112 mg, 112 mg single IV infusion, read-out: tmax Median): 4 h
- AUC (134.4 mg, 134.4 mg single IV infusion, read-out: AUC24 Geo Mean): 2660 ng·h/mL
- AUC (134.4 mg, 134.4 mg single IV infusion, read-out: AUC24 Mean): 2690 ng·h/mL
- AUC (134.4 mg, 134.4 mg single IV infusion, read-out: AUC24 Median): 2670 ng·h/mL
- AUC(0-inf) (134.4 mg, 134.4 mg single IV infusion, read-out: AUCinf Geo Mean): 2680 ng·h/mL
- AUC(0-inf) (134.4 mg, 134.4 mg single IV infusion, read-out: AUCinf Mean): 2720 ng·h/mL
- AUC(0-inf) (134.4 mg, 134.4 mg single IV infusion, read-out: AUCinf Median): 2680 ng·h/mL
- AUC(0-t) (134.4 mg, 134.4 mg single IV infusion, read-out: AUClast Geo Mean): 2660 ng·h/mL
- AUC(0-t) (134.4 mg, 134.4 mg single IV infusion, read-out: AUClast Mean): 2690 ng·h/mL
- AUC(0-t) (134.4 mg, 134.4 mg single IV infusion, read-out: AUClast Median): 2670 ng·h/mL
- clearance (134.4 mg, 134.4 mg single IV infusion, read-out: CL Mean (converted)): 848 mL/min
- clearance (134.4 mg, 134.4 mg single IV infusion, read-out: CL Median (converted)): 839 mL/min
- concentration at 9 h (134.4 mg, 134.4 mg single IV infusion, read-out: Ceoi Geo Mean): 290 ng/mL
- concentration at 9 h (134.4 mg, 134.4 mg single IV infusion, read-out: Ceoi Mean): 292 ng/mL
- concentration at 9 h (134.4 mg, 134.4 mg single IV infusion, read-out: Ceoi Median): 300 ng/mL
